Test results taken from ChEMBL document CHEMBL3885881, “DrugMatrix”.

Species on record: Rattus norvegicus
Assay: DrugMatrix - Regimen: Daily Repeat
Type: toxicity, organism-based, Sprague-Dawley
Parameters: regimen Daily Repeat, gender Male, age 6-8 weeks
Details: in vivo, po, route oral GAVAGE, vehicle 100 % WATER; for ABSOLUTE BASOPHIL / ABSOLUTE EOSINOPHIL / ABSOLUTE LYMPHOCYTE / ABSOLUTE MONOCYTE / ABSOLUTE SEGMENTED NEUTROPHIL / BASOPHIL / EOSINOPHIL / ERYTHROCYTE COUNT / HEMATOCRIT / HEMOGLOBIN / LEUKOCYTE COUNT / LYMPHOCYTE / MEAN CORPUSCULAR HEMOGLOBIN / MEAN CORPUSCULAR HEMOGLOBIN CONCENTRATION / MEAN CORPUSCULAR VOLUME / MONOCYTE / NEUTROPHIL / NUCLEATED RED BLOOD CELLS / PLATELET COUNT: tissue Blood; for ALANINE AMINOTRANSFERASE / ALBUMIN / ALKALINE PHOSPHATASE / ASPARTATE AMINOTRANSFERASE / BLOOD UREA NITROGEN / CARBON DIOXIDE / CHLORIDE / CHOLESTEROL / CREATINE PHOSPHOKINASE / CREATININE / GLUCOSE / LACTATE DEHYDROGENASE / LIPASE / PHOSPHORUS / POTASSIUM / SODIUM / TOTAL BILIRUBIN / TOTAL PROTEIN / URIC ACID: tissue Plasma
[1] = 8 mg/kg, 72 h, dose level Low, time 3 day
[2] = 8 mg/kg, 120 h, dose level Low, time 5 day
[3] = 78 mg/kg, 72 h, dose level High, time 3 day
[4] = 78 mg/kg, 120 h, dose level High, time 5 day

NNc1ccccc1 [PHENYLHYDRAZINE]
ABSOLUTE BASOPHIL [1]: 0 CELLS/uL | ABSOLUTE EOSINOPHIL [1]: 0 CELLS/uL | ABSOLUTE LYMPHOCYTE [1]: 13454.67 CELLS/uL | ABSOLUTE MONOCYTE [1]: 235.67 CELLS/uL | ABSOLUTE SEGMENTED NEUTROPHIL [1]: 1043 CELLS/uL | BASOPHIL [1]: 0% | EOSINOPHIL [1]: 0% | ERYTHROCYTE COUNT [1]: 5.23 x10E6/uL | HEMATOCRIT [1]: 34.17% | HEMOGLOBIN [1]: 13.63 G/DL | LEUKOCYTE COUNT [1]: 14.73 x10E3/uL | LYMPHOCYTE [1]: 91.33% | MEAN CORPUSCULAR HEMOGLOBIN [1]: 26.1 pg | MEAN CORPUSCULAR HEMOGLOBIN CONCENTRATION [1]: 39.93 G/DL | MEAN CORPUSCULAR VOLUME [1]: 65.33 fL | MONOCYTE [1]: 1.33% | NEUTROPHIL [1]: 7.33% | NUCLEATED RED BLOOD CELLS [1]: 0 /100WBC | PLATELET COUNT [1]: 994.33 x10E3/uL | ALANINE AMINOTRANSFERASE [1]: 53 u/L | ALBUMIN [1]: 4.17 G/DL | ALKALINE PHOSPHATASE [1]: 388 u/L | ASPARTATE AMINOTRANSFERASE [1]: 115 u/L | BLOOD UREA NITROGEN [1]: 15.33 mg/dL | CARBON DIOXIDE [1]: 21.33 mmol/L | CHLORIDE [1]: 102.67 MEQ/L | CHOLESTEROL [1]: 102.33 mg/dL | CREATINE PHOSPHOKINASE [1]: 1080.67 u/L | CREATININE [1]: 0.13 mg/dL | GLUCOSE [1]: 177 mg/dL | LACTATE DEHYDROGENASE [1]: 308.67 u/L | LIPASE [1]: 9.33 u/L | PHOSPHORUS [1]: 14.53 mg/dL | POTASSIUM [1]: 6.82 MEQ/L | SODIUM [1]: 146.1 MEQ/L | TOTAL BILIRUBIN [1]: 0.17 mg/dL | TOTAL PROTEIN [1]: 5.87 G/DL | URIC ACID [1]: 2.1 mg/dL | ABSOLUTE BASOPHIL [2]: 0 CELLS/uL | ABSOLUTE EOSINOPHIL [2]: 0 CELLS/uL | ABSOLUTE LYMPHOCYTE [2]: 16277.67 CELLS/uL | ABSOLUTE MONOCYTE [2]: 115 CELLS/uL | ABSOLUTE SEGMENTED NEUTROPHIL [2]: 974 CELLS/uL | BASOPHIL [2]: 0% | EOSINOPHIL [2]: 0% | ERYTHROCYTE COUNT [2]: 5.53 x10E6/uL | HEMATOCRIT [2]: 35.4% | HEMOGLOBIN [2]: 14.27 G/DL | LEUKOCYTE COUNT [2]: 17.37 x10E3/uL | LYMPHOCYTE [2]: 93.67% | MEAN CORPUSCULAR HEMOGLOBIN [2]: 25.8 pg | MEAN CORPUSCULAR HEMOGLOBIN CONCENTRATION [2]: 40.3 G/DL | MEAN CORPUSCULAR VOLUME [2]: 64.07 fL | MONOCYTE [2]: 0.67% | NEUTROPHIL [2]: 5.67% | NUCLEATED RED BLOOD CELLS [2]: 0 /100WBC | PLATELET COUNT [2]: 1250.67 x10E3/uL | ALANINE AMINOTRANSFERASE [2]: 46.67 u/L | ALBUMIN [2]: 4.1 G/DL | ALKALINE PHOSPHATASE [2]: 440.67 u/L | ASPARTATE AMINOTRANSFERASE [2]: 81.67 u/L | BLOOD UREA NITROGEN [2]: 15.33 mg/dL | CARBON DIOXIDE [2]: 26.33 mmol/L | CHLORIDE [2]: 102 MEQ/L | CHOLESTEROL [2]: 63 mg/dL | CREATINE PHOSPHOKINASE [2]: 289 u/L | CREATININE [2]: 0.12 mg/dL | GLUCOSE [2]: 147.67 mg/dL | LACTATE DEHYDROGENASE [2]: 310.67 u/L | LIPASE [2]: 9 u/L | PHOSPHORUS [2]: 13.93 mg/dL | POTASSIUM [2]: 6.84 MEQ/L | SODIUM [2]: 144.13 MEQ/L | TOTAL BILIRUBIN [2]: 0.17 mg/dL | TOTAL PROTEIN [2]: 5.83 G/DL | URIC ACID [2]: 1.23 mg/dL | ABSOLUTE BASOPHIL [3]: 0 CELLS/uL | ABSOLUTE EOSINOPHIL [3]: 0 CELLS/uL | ABSOLUTE LYMPHOCYTE [3]: 24784.33 CELLS/uL | ABSOLUTE MONOCYTE [3]: 97 CELLS/uL | ABSOLUTE SEGMENTED NEUTROPHIL [3]: 9152 CELLS/uL | BASOPHIL [3]: 0% | EOSINOPHIL [3]: 0% | ERYTHROCYTE COUNT [3]: 3.43 x10E6/uL | HEMATOCRIT [3]: 24.43% | LEUKOCYTE COUNT [3]: 34.03 x10E3/uL | LYMPHOCYTE [3]: 73% | MEAN CORPUSCULAR VOLUME [3]: 71.33 fL | MONOCYTE [3]: 0.33% | NEUTROPHIL [3]: 26.67% | NUCLEATED RED BLOOD CELLS [3]: 21.67 /100WBC | PLATELET COUNT [3]: 1624.67 x10E3/uL | ALANINE AMINOTRANSFERASE [3]: 46 u/L | ALBUMIN [3]: 4.27 G/DL | ALKALINE PHOSPHATASE [3]: 266 u/L | ASPARTATE AMINOTRANSFERASE [3]: 107.67 u/L | BLOOD UREA NITROGEN [3]: 15 mg/dL | CARBON DIOXIDE [3]: 23.67 mmol/L | CHLORIDE [3]: 102.33 MEQ/L | CHOLESTEROL [3]: 53.33 mg/dL | CREATINE PHOSPHOKINASE [3]: 217.33 u/L | CREATININE [3]: 0.11 mg/dL | GLUCOSE [3]: 182.33 mg/dL | LACTATE DEHYDROGENASE [3]: 512.67 u/L | LIPASE [3]: 9.33 u/L | PHOSPHORUS [3]: 12.13 mg/dL | POTASSIUM [3]: 7.33 MEQ/L | SODIUM [3]: 141.1 MEQ/L | TOTAL BILIRUBIN [3]: 0.9 mg/dL | TOTAL PROTEIN [3]: 5.7 G/DL | URIC ACID [3]: 2 mg/dL | ABSOLUTE BASOPHIL [4]: 0 CELLS/uL | ABSOLUTE EOSINOPHIL [4]: 0 CELLS/uL | ABSOLUTE LYMPHOCYTE [4]: 25256 CELLS/uL | ABSOLUTE MONOCYTE [4]: 656 CELLS/uL | ABSOLUTE SEGMENTED NEUTROPHIL [4]: 6888 CELLS/uL | BASOPHIL [4]: 0% | EOSINOPHIL [4]: 0% | ERYTHROCYTE COUNT [4]: 2.84 x10E6/uL | HEMATOCRIT [4]: 25.3% | LEUKOCYTE COUNT [4]: 32.8 x10E3/uL | LYMPHOCYTE [4]: 77% | MEAN CORPUSCULAR VOLUME [4]: 89.1 fL | MONOCYTE [4]: 2% | NEUTROPHIL [4]: 21% | NUCLEATED RED BLOOD CELLS [4]: 31 /100WBC | PLATELET COUNT [4]: 1632 x10E3/uL | ALANINE AMINOTRANSFERASE [4]: 84 u/L | ALBUMIN [4]: 4.8 G/DL | ALKALINE PHOSPHATASE [4]: 311 u/L | ASPARTATE AMINOTRANSFERASE [4]: 313 u/L | BLOOD UREA NITROGEN [4]: 28 mg/dL | CARBON DIOXIDE [4]: 17 mmol/L | CHLORIDE [4]: 106 MEQ/L | CHOLESTEROL [4]: 81 mg/dL | CREATINE PHOSPHOKINASE [4]: 196 u/L | CREATININE [4]: 0.1 mg/dL | GLUCOSE [4]: 129 mg/dL | LACTATE DEHYDROGENASE [4]: 1486 u/L | LIPASE [4]: 10 u/L | PHOSPHORUS [4]: 11.1 mg/dL | POTASSIUM [4]: 6.59 MEQ/L | SODIUM [4]: 143.3 MEQ/L | TOTAL BILIRUBIN [4]: 2.2 mg/dL | TOTAL PROTEIN [4]: 6.2 G/DL | URIC ACID [4]: 2 mg/dL
